The source of these data is US8835622B2, “Expression cassettes for seed-specific expression in plants” (Bayer BioScience N.V., priority 2008, dated 2014).

The test system of the data set is CYP704A2. The data set can be described thus: Enzyme activity and substrate specificity of recombinant CYP704A2 (microsomes from yeast, radiolabeled substrates, TLC and GC/MS of metabolites). To be noted: for Product (nmole/min/nmole P450) / % of metabolisation: microsomes from yeast expressing CYP704A2, 100 μM radiolabeled substrate, 78 pmoles of CYP704A2, TLC; for Product (nmole/min/nmole P450) / % of metabolisation / substrate of CYP704A2 / relative rate of metabolism (in words): 20 min at 27° C.; for substrate of CYP704A2 / relative rate of metabolism (in words): 100 μM 14C radiolabelled substrate, with NADPH, TLC. The data set is classed as biochemical, Arabidopsis thaliana. As for the experimental part: Heterologous expression of CYP704A2 in Yeast—For functional expression of the full length CYP704A2 clone, we used a yeast expression system specifically developed for the expression of P450 enzymes and consisting of plasmid pYeDP60 and Saccharomyces cerevisiae WAT11 strain (Pompon D. et al (1996) Methods Enzymol 272, 51-64). Yeast cultures were grown and CYP704A2 expression was induced as described in Pompon et al. (1996) see above from one isolated transformed colony. After growth, cells were harvested by centrifugation and manually broken with glass beads (0.45 mm diameter) in 50 mM Tris-HCl buffer (pH 7.5) containing 1 mM EDTA and 600 mM sorbitol. The homogenate was centrifuged for 10 min at 10,000 g. The resulting supernatant was centrifuged for 1 h at 100,000 g. The pellet consisting of microsomal membranes was resuspended in 50 mM Tris-HCl (pH 7.4), 1 mM EDTA and 30% (v/v) glycerol with a Potter-Elvehjem homogenizer and stored at −30° C. The volume of resuspension buffer is proportional to the weight of yeast pellet: microsomes extracted from 6 g of yeast are resuspended in 3 ml of buffer. All procedures for microsomal preparation were carried out at 0-4° C. The cytochrome P450 content was measured by the method of Omura and Sato (1964) J Biol Chem 239, 2370-2378.
Enzyme activities—radiolabeled substrates were dissolved in ethanol that was evaporated before the addition of microsomes into the glass tube. Resolubilization of the substrates was confirmed by measuring the radioactivity of the incubation media. Enzymatic activities of CYP704A2 from transformed yeast or Arabidopsis microsomes were determined by following the formation rate of metabolites. The standard assay (0.1 ml) contained 20 mM sodium phosphate (pH 7.4), 1 mM NADPH, and radiolabeled substrate (100 μM). The reaction was initiated by the addition of NADPH and was stopped by the addition of 20 μl acetonitrile (containing 0.2% acetic acid). The reaction products were resolved by TLC or HPLC as described below.
Thin layer chromatographic (TLC) methods—Incubation media were directly spotted on TLC plates. For separation of metabolites from residual substrate, TLC were developed with a mixture of diethyl ether/light petroleum (boiling point, 40-60° C.)/formic acid (50:50:1, v/v/v). The plates were scanned with a radioactivity detector (Raytest Rita Star). The area corresponding to the metabolites were scraped into counting vials and quantified by liquid scintillation, or they were eluted from the silica with 10 ml of diethyl ether, which was removed by evaporation. They were then subjected to GC/MS analysis.
GC/MS analysis—GC-MS analysis were carried out on a gas chromatograph (Agilent 6890 Series) equipped with a 30-m capillary column with an internal diameter of 0.25 mm and a film thickness of 0.25 μm (HP-5MS). The gas chromatograph was combined with a quadrupole mass selective detector (Agilent 5973N). Mass spectra were recorded at 70 eV and analysed as in Eglinton et al. (1968) Org. Mass. Spectrom 1, 593-611.
The enzyme activity and substrate specificity of CYP704A2 was subsequently evaluated. Thereto 20 μl of microsomal membranes overexpressing CYP704A2 (i.e. […]) were incubated 20 min at 27° C. with 100 μM of different ^14C radiolabelled fatty acids, alkanols or alkanes (purchased with American Radiolabeled Chemicals) together with 0.1 mM of NADPH, 0.4 Units of glucose-6-phosphate dehydrogenase, 3 mM glucose-6-phosphate in buffer NaPi 20 mM, pH 7.4 in a final reaction volume of 100 μl. The reaction was quenched by the addition of 20 μl of 20% of acetonitrile in water, and the incubation mix was spotted on silicagel 60F254 plates (Merck) for analysis. Plates were developed with a mix of ether/petroleum ether/formic acid 50/50/1 until the migration front reached the top of the plate. Dried plates were then scanned with a Raytest radioisotope thin-layer analyzer and radioactivity in the spots of interest was quantified in order to evaluate the substrate conversion. […]

“Also recorded” adds a separate entry of the source. Read-outs that look alike come from different tables or passages of the source.

`CCCCCCCCCCCCO` [C12-OH:0, dodecanol]: the “products formed on incubation with CYP704A2 (TLC, GC/MS)” value is “formation of two more polar compounds” and the “Product (nmole/min/nmole P450)” value is 12.6 nmole/min/nmole P450. Turning to `CCCCCCCCCCCC(=O)O` [C12:0, lauric acid], the “Product (nmole/min/nmole P450)” value is 7.3 nmole/min/nmole P450. On to `CCCCCCCCCCCCCCCC` [C16 alkane, hexadecane], for which the “% of metabolisation” value is listed as 7.1% and the “Product (nmole/min/nmole P450)” value is on record as 22.4 nmole/min/nmole P450. For the same molecule, the “products formed on incubation with CYP704A2 (TLC, GC/MS)” value (incubation with CYP704A2, products purified on TLC and identified by GC/MS) is recorded as “formation of three more polar compounds”. Consider `CCCCCCCCCCCCCCCCO` [C16-OH:0], for which the “Product (nmole/min/nmole P450)” value was 6.5 nmole/min/nmole P450. `CCCCCCCCCCCCCCCC(=O)O` [C16:0, palmitic acid]: the “substrate of CYP704A2 / relative rate of metabolism (in words)” value was “preferentially metabolized”, the “% of metabolisation” value turned out to be 14.3% and the “Product (nmole/min/nmole P450)” value is given as 18.3 nmole/min/nmole P450. Further, the “substrate of CYP704A2 / relative rate of metabolism (in words)” value (listed as palmitic acid) is on record as “best substrate”. For the same molecule, the “rate of palmitic acid metabolism” value (concentration of palmitic acid of 100 μM) was 18.3 nmol/min/nmole of P450. `CCCCCCCCCCCCCC(=O)O` [myristic acid]: the “substrate of CYP704A2 / relative rate of metabolism (in words)” value is given as “not substrates”. The same measure, in the same setting: the value for `CCCCCC/C=C\CCCCCCCC(=O)O` [palmitoleic acid] was “not substrates”; that for `CCCCCCCCCCCCCCCCCC(=O)O` [stearic acid] was “not substrates; also recorded: not metabolized”.
